This note sets out measurements from patent publication US20120128630A1, “1-(6 MEMBERS AZO-HETEROCYCLIC)-PYRROLIN-2-ONE COMPOUNDS AS INHIBITORS OF HEPATITIS C NS5B POLYMERASE, THE PHARAMACEUTICAL COMPOSITION THEREOF AND THEIR THERAPEUTIC USE” (priority 2009, published 2012).

The structures appear in SMILES notation. Where “and” joins values, the source holds several entries; their conditions need not be identical. Equal entries are not always repeated.

Series [1] concerns the target T1, HCV NS5B genotype 1b (Hepatitis C virus genotype 1b, UniProt Q9WMX2).
T1 construct: The protein was expressed with a 21 amino acid C-terminal deletion to remove transmembrane domain; expressed in transfected cells; host or cells: Huh-7
Description: 3D-SCREEN assay (NS5B 3D-Screen platform, luciferase reporter gene). The format is cell-based. Particulars: EC50_3DS_NS5B, Table 1, 3D-SCREEN assay results; Huh-7 cells, 24 hours with compound, firefly luciferase reporter. The procedure, abridged: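 Huh-7 cells transiently co-transfected with NS5BΔ21/Gal4-DBD, 3D-Sensor peptide I4/VP16 and firefly luciferase reporter. Compounds added 2 h after seeding, 1% DMSO final, 24 h incubation. Luciferase luminescence read; % inhibition relative to no-compound signal.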

Series [2] deals with HCV replicon Luc Neo ET. Description: Luc Neo ET Replicon assay. The format is cell-based, Hepatitis C virus. To be noted: Table 3, titled RdRp enzyme assay results, EC50_Replicon LucneoET, 72 hours with compound, luciferase. The method, then:
Human Hepatoma Huh-7 cell line was maintained in DMEM/HAMF-12 supplemented with 10% SVF, 4 mM glutamine, […] Na pyruvate, 1% penistreptomycine. HCV replicon containing Huh-7 cell lines Huh-9.13 and Luc Neo ET (Reblikon) were maintained in DMEM supplemented with 10% SVF, 2 mM glutamine, and 1×NEAA, 100 U/ml penicillin, and 100 μg/ml streptomycine. Replicon cells were maintained in medium supplemented with 1 mg/ml G418 for replicon Huh-9.13 and 0.5 mg/ml for Luc Neo et replicon unless indicated otherwise. Huh-7 and HCV replicon cell lines were maintained at 37° C. and 5% CO2 in a humidified atmosphere. Cells were dissociated at sub confluence with trypsin EDTA 1×.
Replicon Luc Neo ET is a bicistronic expression constructs (Lohmann et al, 1999, Science 285, 110-113). In brief, the structural genes of the HCV genome were replaced by heterologous sequences; the gene encoding the neomycin phosphotransferase (NPT) and the internal ribosome entry site (IRES) of the encephalomyocarditis virus (EMCV). The bicistronic construct is therefore composed of the following elements: HCV-IRES nucleotides 1-389, the NPT gene, the EMCV-IRES directing translation of downstream HCV sequences from NS2 or NS3 up to the authentic 3′ end of the genome. HCV Polyprotein harbours the cell culture adaptive mutations E1202G, T1280I, K1846T. G418-resistance is only possible with cells containing high amounts of replicon.
Cells were dissociated the day before addition of compounds and seeded in 96 well-plates at a final concentration of 77 777.77 cells.ml^−1.well^−2 in 90 μl final volume of culture medium per well and were maintained at 37° C. and 5% CO2 in a humidified atmosphere for 24 hours. 10 μl of compounds to be tested were added 24 hours after seeding. Final concentration of DMSO was 1%. Cells were incubated in the presence of compounds for 72 hours after which expression of firefly luciferase reporter gene was quantified. Briefly, culture medium was removed and cells were lysed by addition of 100 μl of lysis buffer containing 125 mM Tris Phosphate ph 7.8, 10 mM EDTA, 5 mM DTT, 50% glycerol and 5% Triton. Plates were vortexed 10 min at 1300 rpm. Cell lysat was transferred in OpaqueWhite Assay 96 well Flat Bottom plates. 100 μl of luciferin solution 1× were added to each well. Luciferin solution contained 40 mM Tris Phosphate ph 7.8, 0.2 mM EDTA, 67 mM DTT, 2.14 mM MgCl2, 5.4 mM MgSO4, 4.7×10^−4 M luciferin, 5.3×10^−4 M ATP and 2.7×10^−4 M Acetyl co enzyme A. Luminescence was immediately measured with Berthold Microlumat Plus LB 96V luminometer with an integration of 0.5 sec Inhibition was calculated using the formula:
% inhibition=1−[(RLUsample−RLUbackground)/(RLUsignal−RLUbackground)]
For orientation: In antiviral work, replicon cells carry a viral genome segment that copies itself.

As to `Cc1ccc(C(=O)C2=C(O)C(=O)N(c3ccc(C)nn3)C2c2ccc(C(C)C)cc2)cc1` (stereo not drawn) [Example 8, 3-hydroxy-5-(4-isopropyl-phenyl)-4-(4-methyl-benzoyl)-1-(6-methyl-pyridazin-3-yl)-1,5-dihydro-pyrrol-2-one], the melting point was 279 °C. Moreover, the 50% effective concentration (EC50) in series [1] turned out to be 2000 nM. In addition, the EC50 in series [2] (Hepatitis C virus, 72 h) came out at 3000 nM.
On the same counts, the results for `Cc1ccc(N2C(=O)C(O)=C(C(=O)c3ccc(C(C)C)cc3)C2c2ccc(C(C)C)cc2)nn1` (stereo not drawn) [Example 20, 3-hydroxy-4-(4-isopropyl-benzoyl)-5-(4-isopropyl-phenyl)-1-(6-methyl-pyridazin-3-yl)-1,5-dihydro-pyrrol-2-one] are 271 °C, 400 nM and 100 nM.
Turning to `Cc1ccc(C(=O)C2=C(O)C(=O)N(c3ccc(C)nn3)C2c2ccc(OC(F)(F)F)cc2)cc1` (stereo not drawn) [Example 22, 3-hydroxy-4-(4-methyl-benzoyl)-1-(6-methyl-pyridazin-3-yl)-5-(4-trifluoromethoxy-phenyl)-1,5-dihydro-pyrrol-2-one], the melting point was 269 °C. For the same compound, the EC50 in series [1] worked out at 600 nM. Further, the EC50 in series [2] (Hepatitis C virus, 72 h) stood at 500 nM.
`Cc1ccc(N2C(=O)C(O)=C(C(=O)c3ccc(OC(F)(F)F)cc3)C2c2ccc(C(C)C)cc2)nn1` (stereo not drawn) [Example 25, 3-hydroxy-5-(4-isopropyl-phenyl)-1-(6-methyl-pyridazin-3-yl)-4-(4-trifluoromethoxy-benzoyl)-1,5-dihydro-pyrrol-2-one] came in with a melting point of 269 °C. The EC50 in series [1] worked out at 500 nM. Also, the concentration for a half-maximal effect (EC50) in series [2] (Hepatitis C virus, 72 h) was 200 nM.
Compound `Cc1ccc(N2C(=O)C(O)=C(C(=O)c3ccc(C(C)C)cc3)C2c2ccc(C(C)C)cc2)cn1` (stereo not drawn) [Example 48, 3-hydroxy-4-(4-isopropyl-benzoyl)-5-(4-isopropyl-phenyl)-1-(6-methyl-pyridin-3-yl)-1,5-dihydro-pyrrol-2-one] showed a melting point of 252 to 254 °C. Further, in series [1], the EC50 is 700 nM. Also, the EC50 in series [2] was determined as 1000 nM.
Turning to `CC(=O)OC1=C(C(=O)c2ccc(C(C)C)cc2)C(c2ccc(C(C)C)cc2)N(c2ccc(C)nn2)C1=O` (stereo not drawn) [Example 56, Acetic acid 4-(4-isopropyl-benzoyl)-5-(4-isopropyl-phenyl)-1-(6-methyl-pyridazin-3-yl)-2-oxo-2,5-hydro-1H-pyrrol-3-yl ester], the melting point stood at 215 °C. Besides, the EC50 in series [1] was 500 nM. The concentration for a half-maximal effect (EC50) in series [2] (Hepatitis C virus, 72 h) was determined as 600 nM.
Take `Cc1ccc(N2C(=O)C(O)=C(C(=O)c3ccc(C(C)C)cc3)C2c2ccc(OC(F)(F)F)cc2)nn1` (stereo not drawn) [Example 61, 3-hydroxy-4-(4-isopropyl-benzoyl)-1-(6-methyl-pyridazin-3-yl)-5-(4-trifluoromethoxy-phenyl)-1,5-dihydro-pyrrol-2-one]: the melting point is 258 to 260 °C and 262 to 265 °C. For the same compound, the EC50 in series [1] stood at 70 nM. Further, in series [2] (Hepatitis C virus, 72 h), the EC50 came to 100 nM.
In the case of `COc1ccc(C2C(C(=O)c3ccc(C(C)C)cc3)=C(O)C(=O)N2c2ccc(C)nn2)cc1` (stereo not drawn) [Example 62, 3-hydroxy-4-(4-isopropyl-benzoyl)-5-(4-methoxy-phenyl)-1-(6-methyl-pyridazin-3-yl)-1,5-dihydro-pyrrol-2-one], the melting point was in the range of 263 to 267 °C. In addition, the EC50 in series [1] worked out at 800 nM. The EC50 in series [2] (Hepatitis C virus, 72 h) was 900 nM.
Turning to `Cc1ccc(N2C(=O)C([O-])=C(C(=O)c3ccc(C(C)C)cc3)C2c2ccc(C(C)C)cc2)cn1.[Na+]` (stereo not drawn) [Example 67, Sodium; 4-(4-isopropyl-benzoyl)-5-(4-isopropyl-phenyl)-1-(6-methyl-pyridin-3-yl)-2-oxo-2,5-dihydro-1H-pyrrol-3-olate], the melting point was 215 °C. Also, the EC50 in series [1] was found to be 3000 nM. The EC50 in series [2] was under 10000 nM.

In general, melting point refers to the temperature, or range, at which the solid turns liquid. Broadly, the EC50 is the concentration at which the effect is half-maximal.
